Measurements reported in patent publication US20060041123A1, “Antibacterial agents” (priority 2002, published 2006).
Counter-ions that a name gives are not always drawn. Like-named read-outs stand apart in the source and are kept apart here.

Test: Antimicrobial activity assay: whole-cell MIC by broth microdilution (NCCLS M7-A6)
Format: cell-based
Experimental: Whole-cell antimicrobial activity was determined by broth microdilution using the National Committee for Clinical Laboratory Standards (NCCLS) recommended procedure, Document M7-A6, “Methods for Dilution Susceptibility Tests for Bacteria that Grow Aerobically”. The compounds were tested in serial two-fold dilutions ranging from 0.016 to 16 mcg/mL. Compounds were evaluated against a panel of Gram-positive organisms, including Staphylococcus aureus WCUH29, Streptococcus pneumoniae 1629, Streptococcus pyogenes CN 10, and Enterococcus faecalis 2. In addition, compounds were evaluated against a panel of Gram-negative strains including Haemophilus influenzae NEMC1, E. coli 7623, and Moraxella catarrhalis Ravasio. The minimum inhibitory concentration (MIC) was determined as the lowest concentration of compound that inhibited visible growth. A mirror reader was used to assist in determining the MIC endpoint.
Compounds of the present invention have MIC's ≦20 μg/ml versus all the organisms named above.

[1] = versus all the organisms named above (S. aureus WCUH29, S. pneumoniae 1629, S. pyogenes CN 10, E. faecalis 2, H. influenzae NEMC1, E. coli 7623, M. catarrhalis Ravasio), read-out: MIC

Compound	MIC [mg/L]	MIC [1] [mg/L]
COc1ccc2ncc(F)c(CCN3CC[C@H](NCc4ccc5c(n4)NC(=O)CO5)[C@H](O)C3)c2n1.Cl.Cl [Example 68, 6-{[((3R,4S)-1-{2-[3-fluoro-6-(methoxy)-1,5-naphthyridin-4-yl]ethyl}-3-hydroxy-4-piperidinyl)amino]methyl}-2H-pyrido[3,2-b][1,4]oxazin-3(4H)-one dihydrochloride]	≤ 2	–
COc1ccc2ncc(F)c(CCN3CCC(NCc4ccc5c(c4)NC(=O)CCS5)CC3)c2n1 [Example 128, 7-{[(1-{2-[3-fluoro-6-(methoxy)-1,5-naphthyridin-4-yl]ethyl}-4-piperidinyl)amino]methyl}-2,3-dihydro-1,5-benzothiazepin-4(5H)-one]	–	≤ 2
COc1ccc2ncc(F)c(CCN3CC[C@@H](NCc4ccc5c(n4)NC(=O)CS5)[C@@H](O)C3)c2n1.Cl.Cl (single isomer, unassigned; enantiomer 2) [Example 70]	≤ 2	–
COc1ccc2ncc(Cl)c(C(O)CN3CCC(NCc4ccc5c(n4)NC(=O)CO5)CC3)c2n1.Cl.Cl (racemic) [Example 1, 6-({1-[(Racemic)-2-(3-Chloro-6-methoxy-[1,5]naphthyridin-4-yl)-2hydroxy-ethyl]-piperidin-4-ylamino}-methyl)-4H-pyrido[3,2-b][1,4]oxazin-3-one Dihydrochloride]	≤ 2	–
COc1ccc2ncc(F)c(CCN3CCC(C)(NC(=O)c4ccc5c(n4)NC(=O)CO5)CC3)c2n1 [Example 167, N-(1-{2-[3-fluoro-6-(methoxy)-1,5-naphthyridin-4-yl]ethyl}-4-methyl-4-piperidinyl)-3-oxo-3,4-dihydro-2H-pyrido[3,2-b][1,4]oxazine-6-carboxamide]	–	≤ 2
COc1cc(F)c2ncc(F)c(CCN3CC[C@H](NCc4ccc5c(n4)NC(=O)CS5)[C@H](F)C3)c2c1.Cl.Cl (single isomer, unassigned; enantiomer 1) [Example 149, cis-6-{[(-1-{2-[3,8-difluoro-6-(methoxy)-4-quinolinyl]ethyl}-3-fluoro-4-piperidinyl)amino]methyl}-2H-pyrido[3,2-b][1,4]thiazin-3(4H)-one dihydrochloride, Enantiomer 1]	–	≤ 2
COc1ccc2ncc(F)c(CCN3CC[C@H](NCc4cc5c(cn4)OCCO5)[C@H](O)C3)c2c1.Cl.Cl.Cl.Cl (single isomer, unassigned; enantiomer 1) [Example 34, cis-4-[(2,3-Dihydro-[1,4]dioxino[2,3-c]pyridin-7-ylmethyl)-amino]-1-[2-(3-fluoro-6-methoxy-quinolin-4-yl)-ethyl]-piperidin-3-ol dihydrochloride dihydrochloride Enantiomer 1]	–	≤ 2
COc1cc(F)c2ncc(F)c(CCN3CCC(NCc4cnc5c(c4)NC(=O)CS5)CC3)c2c1.Cl.Cl [Example 48, 7-{[(1-{2-[3,8-Difluoro-6-(methoxy)-4-quinolinyl]ethyl}-4-piperidinyl)amino]methyl}-1H-pyrido[2,3-b][1,4]thiazin-2(3H)-one dihydrochloride]	–	≤ 2
COc1ccc2ncc(F)c(CCN3CC[C@@H](NCc4ccc5c(n4)NC(=O)CO5)[C@H](O)C3)c2c1.Cl.Cl (relative stereo) [Example 133, trans-6-{[(1-{2-[3-fluoro-6-(methoxy)-4-quinolinyl]ethyl}-3-hydroxy-4-piperidinyl)amino]methyl}-2H-pyrido[3,2-b][1,4]oxazin-3(4H)-one dihydrochloride]	–	≤ 2
COc1ccc2ncc(Cl)c(CCN3CC[C@H](NCc4ccc5c(n4)NC(=O)CO5)[C@H](O)C3)c2c1 (single isomer, unassigned; enantiomer 2) [Example 6, 6-({(cis)-1-[2-(3-Chloro-6-methoxy-quinolin-4-yl)-ethyl]-3-hydroxy-piperidin-4-ylamino}-methyl)-4H-pyrido[3,2-b][1,4]oxazin-3-one Dihydrochloride Enantiomer 2]	–	≤ 2
COc1ccc2ncc(F)c(CCN3CCC(NCc4cnc5c(c4)OCCO5)CC3)c2c1.Cl.Cl [Example 85, N-(2,3-dihydro[1,4]dioxino[2,3-b]pyridin-7-ylmethyl)-1-(2-[3-fluoro-6-(methoxy)-4-quinolinyl]ethyl}-4-piperidinamine dihydrochloride]	–	≤ 2
COc1ccc2ncc(Cl)c(CCN3CC[C@@H](NCc4cc5c(cn4)OCCO5)[C@H](O)C3)c2n1 (single isomer, unassigned; enantiomer 1) [Example 154, trans-1-{2-[3-chloro-6-(methoxy)-1,5-naphthyridin-4-yl]ethyl}-4-[(2,3-dihydro[1,4]dioxino[2,3-c]pyridin-7-ylmethyl)amino]-3-piperidinol Enantiomer 1]	–	≤ 2
COc1ccc2ncc(F)c(CCN3CCC(NCc4cc5c(cn4)OCCO5)CC3)c2c1.Cl.Cl [Example 32, {1-[2-(3-Fluoro-6-methoxy-quinolin-4-yl)-ethyl]-piperidin-4-yl}-(2,3-dihydro-[1,4]dioxino[2,3-c]pyridin-7-ylmethyl)-amine dihydrochloride]	–	≤ 2
COc1ccc2ncc(Cl)c(CCN3CC[C@H](NCc4cc5c(cn4)OCCO5)[C@H](O)C3)c2c1.Cl.Cl (single isomer, unassigned; enantiomer 1) [Example 45, cis-1-[2-(3-Chloro-6-methoxy-quinolin-4-yl)-ethyl]-4-[(2,3-dihydro-[1,4]dioxino[2,3-c]pyridin-7-ylmethyl)-amino]-piperidin-3-ol Dihydrochloride Enantiomer 1]	–	≤ 2
COc1ccc2ncc(Cl)c(C(O)CN3CCC(NCc4cc5c(cn4)OCCO5)CC3)c2n1.Cl.Cl (single isomer, unassigned; enantiomer 1) [Example 35, {1-[2-(3-Chloro-6-methoxy-[1,5]naphthyridin-4-yl)-2-hydroxyethyl]-piperidin-4-yl}-(2,3-dihydro-[1,4]dioxino[2,3-c]pyridin-7-ylmethyl)-amine Dihydrochloride Enantiomer 1]	–	≤ 2
COc1ccc2ncc(F)c(CCN3CCC(NCc4ccc5c(n4)NC(=O)CS5)CC3)c2n1.Cl.Cl [Example 59, 6-{[(1-{2-[3-Fluoro-6-(methoxy)-1,5-naphthyridin-4-yl]ethyl}-4-piperidinyl)amino]methyl}-2H-pyrido[3,2-b][1,4]thiazin-3(4H)-one dihydrochloride]	–	≤ 2
COc1ccc2ncc(F)c(CCN3CCC(NC(=O)c4nc5c(cc4F)SCC(=O)N5)CC3)c2n1.Cl.Cl [Example 62, 7-Fluoro-N-(1-{2-[3-fluoro-6-(methoxy)-1,5-naphthyridin-4-yl]ethyl}-4-piperidinyl)-3-oxo-3,4-dihydro-2H-pyrido[3,2-b][1,4]thiazine-6-carboxamide dihydrochloride]	–	≤ 2
Cl.Cl.O=C1CSc2ccc(CNC3CCN(CCc4c(Cl)cnc5ccc(Cl)cc45)CC3)nc2N1 [Example 27, 6-({1-[2-(3,6-Dichloro-quinolin-4-yl)-ethyl]-piperidin-4-ylamino}-methyl)-4H-pyrido[3,2-b][1,4]thiazin-3-one Dihydrochloride]	–	≤ 2
Cl.Cl.O=C1CSc2ccc(CNC3CCN(CCc4c(Cl)cnc5ccc(F)cc45)CC3)nc2N1 [Example 25, 6-({1-[2-(3-Chloro-6-fluoro-quinolin-4-yl)-ethyl]-piperidin-4-ylamino}-methyl)-4H-pyrido[3,2-b][1,4]thiazin-3-one Dihydrochloride]	–	≤ 2
COc1cc(F)c2ncc(F)c(CCN3CC[C@H](NCc4cc5c(cn4)OCCO5)[C@H](O)C3)c2c1.Cl.Cl.Cl.Cl (single isomer, unassigned; enantiomer 1) [Example 74]	–	≤ 2
COc1ccc2ncc(Cl)c(CCN3CC[C@H](NCc4ccc5c(n4)NC(=O)CS5)[C@H](O)C3)c2c1 (single isomer, unassigned; enantiomer 2) [Example 8, 6-({(cis)-1-[2-(3-Chloro-6-methoxy-quinolin-4-yl)-ethyl]-3-hydroxy-piperidin-4-ylamino}-methyl)-4H-pyrido[3,2-b][1,4]thiazin-3-one Dihydrochloride Enantiomer 2]	–	≤ 2
COc1ccc2ncc(F)c(CCN3CCC(NCc4cc5c(cn4)OCCS5)CC3)c2n1.Cl.Cl [Example 60, N-(2,3-Dihydro[1,4]oxathiino[2,3-c]pyridin-7-ylmethyl)-1-{2-[3-fluoro-6-(methoxy)-1,5-naphthyridin-4-yl]ethyl}-4-piperidinamine dihydrochloride]	–	≤ 2
COc1cc(F)c2ncc(F)c(CCN3CC[C@H](NCc4ccc5c(n4)NC(=O)CO5)[C@H](F)C3)c2c1.Cl.Cl (single isomer, unassigned; enantiomer 1) [Example 145, cis-6-{[(1-{2-[3,8-difluoro-6-(methoxy)-4-quinolinyl]ethyl}-3-fluoro-4-piperidinyl)amino]methyl}-2H-pyrido[3,2-b][1,4]oxazin-3(4H)-one dihydrochloride, Enantiomer 1]	–	≤ 2
COc1cc(F)c2ncc(F)c(CCN3CCC(NCc4cc5c(cn4)OCCO5)CC3)c2c1.Cl.Cl [Example 47, 1-{2-[3,8-difluoro-6-(methoxy)-4-quinolinyl]ethyl}-N-(2,3-dihydro[1,4]dioxino[2,3-c]pyridin-7-ylmethyl)-4-piperidinamine dihydrochloride]	–	≤ 2
COc1ccc2ncc(Cl)c(CCN3CCC(NCc4cc5c(cn4)OCCO5)CC3)c2c1.Cl.Cl [Example 4, {1-[2-(3-Chloro-6-methoxy-quinolin-4-yl)-ethyl]-piperidin-4-yl}-(2,3-dihydro-[1,4]dioxino[2,3-c]pyridin-7-ylmethyl)-amine Dihydrochloride]	–	≤ 2
